Assay [1] deals with mixed bacterial inoculum (Table 6). As to the kind of experiment: Challenge test (preservative efficacy), mixed bacterial inoculum, full pool (Table 6). The format is cell-based. Here is the method: (§1) The preservative activity in representative rinse-off and leave-on formulations was evaluated using a modification of the Personal Care Products Council (PCPC—formerly the Cosmetic, Toiletry and Fragrance Association) protocol (Machtiger, et al. 2001. Determination of the Efficacy of Preservation of Non-Eye Area Water Miscible Cosmetic and Toiletry Formulations: Collaborative Study. J of AOAC International. 84:1, 101-109).
(§2) This evaluation was conducted using a four week, two or three-cycle (i.e., two-cycle for personal care and three-cycle for home care applications) microbial preservative efficacy test (i.e., challenge test) at 25° C. to determine the preservative efficacy of each treatment. Phenoxyethanol, benzyl alcohol and pelargonic acid were tested alone and in various combinations. The pelargonic acid used in the testing was purchased from Sigma-Aldrich. Combinations of phenoxyethanol or benzyl alcohol with benchmark multifunctional booster compounds were also tested for comparison. The preservative and booster ingredients were dosed and mixed thoroughly at room temperature into various formulations, specifically different personal care formulations including a lotion (leave-on, Table 1), a micellar water (rinse-off, Table 2), and a body wash formulation (rinse-off, Table 3) and different home care formulations including a manual dishwashing formulation (Table 4) and a liquid laundry detergent formulation (Table 5). […] Carbomers are a commonly used synthetic rheological modifier in personal care products. The formulation below was made by heating the aqueous (A) and oil (B) phases separately to 75-80° C. The oil phase was then poured into the aqueous phase and mixed by a homogenizer at approximately 45° C. The formed oil-in-water emulsion was cooled to room temperature. Triethanolamine and/or diluted sodium hydroxide was used to adjust the final pH to 6.3 or 6.5 (as indicated in the examples below).
(§3) After dosing, the samples were divided into two separate five gram aliquots. One aliquot was inoculated with 50 μl of a diluted bacterial pool, and the second aliquot was inoculated with 50 μl of a diluted fungal pool as described below. Unpreserved product samples were included as a growth control.
(§4) For personal care products, a mixed bacterial inoculum was prepared using 24-hour cultures of the test bacteria (Table 6) grown in trypticase soy broth (TSB). For home care products, a mixed bacterial inoculum was prepared using 24-hour cultures of the test bacteria either from Table 6 (full pool) or Table 7 (simplified pool) grown in trypticase soy broth (TSB). Details are disclosed in the home care examples below. Equal volumes of the bacterial test strains were combined and diluted one to ten in phosphate buffer to obtain an inoculum of approximately 5×10^7 to 5×10^8 colony forming units per ml (cfu/ml). The test samples were inoculated with 1% of the mixed bacterial inoculum. For both personal care and home care products, a mixed fungal inoculum was prepared using cell suspensions of the yeast Candida albicans ATCC #10231 and the mold Aspergillus brasiliensis ATCC #16404 in phosphate buffer. Equal volumes of the fungal test strains were combined and diluted one to ten with phosphate buffer to obtain an inoculum of approximately 5×10^6 to 5×10^7 cfu/ml. The test samples were inoculated with 1% of the mixed fungal inoculum.
(§5) For personal care products, the samples were subjected to two microbial challenges at time zero and inoculated a second time after seven days. For home care products, the samples were subjected to three microbial challenges at time zero and inoculated a second and third time after seven and fourteen days, respectively. The number of microorganisms added to each sample was determined by a standard Most Probable Number (MPN) determination in Trypticase Soy Broth (TSB) for bacteria and Potato Dextrose Broth (PDB) for fungi. Samples were incubated at 25° C. for the test duration of four weeks.

The test system of assay [2] is bacteria (Table 6 pool) and fungi. Put plainly: Challenge test, overall result (full bacteria pool and fungi). The class given is cell-based. The procedure: as §1, §2, §3, §4, §5
The test system of assay [3] is mixed fungal inoculum: Candida albicans ATCC #10231 and Aspergillus brasiliensis ATCC #16404. Put plainly: Challenge test (preservative efficacy), mixed fungal inoculum. The format is cell-based. The procedure: as §1, §2, §3, §4, §5
Assay [4] in a line: ZenBio Cupric Ion Chelating (CIC) Assay. The class given is physicochemical. The settings on record: calculated from a EDTA calibration curve, Pelargonic Acid at 775 μM. Here is the method: The chelation property of the pelargonic acid was measured by using the ZenBio Cupric Ion Chelating (CIC) Assay (Cat #AOX-16). The assay measured the capacity of the pelargonic acid to chelate free cupric ions in solution, thereby inhibiting Cu(II) binding to pyrocatechol violet (PV) for generating a highly colored complex. The absorbance of the Cupric-PV complex was measured at a wavelength of 632 nm. The cupric ion chelating activity was determined as the percent of total PV over the Cu(II) binding. Ethylenediaminetetraacetic acid (EDTA), a well-known chelating agent, was used as a positive control. A series of EDTA with 7 different concentrations from 0 to 1000 μM were prepared and their corresponding absorbance measured and used as the calibration curve (Cupric ion chelating (%) vs. EDTA concentration). Percent cupric ion chelating was determined following the following calculations and Equation 1. The background absorbance value by averaging the absorbance values of the three background wells (no CuSO4 or sample). The average background absorbance was then subtracted from all the sample absorbance values. The maximal absorbance value (Absmax) was determined by averaging the absorbance values of the three wells containing CuSO4, PV and assay buffer. Abstest in Equation 1 is the absorbance of the test sample.
The calibration curve (Cupric ion chelating (%) vs. EDTA concentration) was fit by using a polynomial curve after log 10 transforming the concentrations (R2>0.98).

Assay [5] has as its system bacteria (Table 7 pool) and fungi. Put plainly: Challenge test, overall result (simplified bacteria pool and fungi). The format is cell-based. The settings on record: dosed 0.02 wt %. Here is the method: as §1, §2, §3, §4, §5
The test system of assay [6] is mixed bacterial inoculum for home care (Table 7). As to the kind of experiment: Challenge test (preservative efficacy), mixed bacterial inoculum, simplified pool (Table 7). The class given is cell-based, Pseudomonas aeruginosa, Staphylococcus aureus. Conditions: dosed 0.02 wt %. The procedure:
as §1, §2, §3, §4, §5

Where [7] appears, read: body wash, pH 6.5, Example 1E, dosed 0.5 wt %.
Where [8] appears, read: lotion with carbomer, pH 6.3, Example 1A, dosed 0.4 wt %.
Where [9] appears, read: micellar water, pH 6.0, Example 1B, dosed 0.3 wt %.
The mark [10] stands for this setting: micellar water, pH 6.0, Example 1C, dosed 0.3 wt %.
[11] abbreviates: micellar water, pH 6.0, bacteria inoculation ~10^7 cfu/ml, Example 1B, dosed 0.5 wt %.
[12] abbreviates: micellar water, pH 6.0, Example 1B, dosed 0.5 wt %.
[13] abbreviates: lotion with carbomer, pH 6.5, Example 1I, dosed 0.016 wt %.
Setting [14] is: liquid laundry detergent, pH 7.5, Example 1H, dosed 0.02 wt %.

Consider `OCc1ccccc1` [Benzyl Alcohol (BA), benzyl alcohol], for which the “Bacteria growth rating Result” value is “Fail (growth rating score caused by bacteria of 2 or more at days 21-28 of the testing period)” in assay [1] (setting [7]); “Fail (growth rating score caused by bacteria of 2 or more at days 21-28 of the testing period)” in assay [1] (setting [8]); “Fail (growth rating score caused by bacteria of 2 or more at days 21-28 of the testing period)” in assay [1] (lotion with carbomer, pH 6.3, Example 1D, dosed 0.4 wt %); “Fail (growth rating score caused by bacteria of 2 or more at days 21-28 of the testing period)” in assay [1] (lotion with carbomer, pH 6.3, Example 1D, dosed 0.8 wt %); “Pass (growth rating score caused by bacteria of 1 or less at days 21-28 of the testing period)” in assay [1] (micellar water, pH 6.0, bacteria inoculation ~10^7 cfu/ml, Example 1B, dosed 0.3 wt %); “Fail (growth rating score caused by bacteria of 2 or more at days 21-28 of the testing period)” in assay [1] (micellar water, pH 6.0, bacteria inoculation ~10^8 cfu/ml, Example 1C, dosed 0.3 wt %). The “Overall Result” value in assay [2] (setting [7]), in assay [2] (setting [8]), in assay [2] (setting [9]) and in assay [2] (setting [10]) was “Fail” in each case. Besides, the “Fungi growth rating Result” value in assay [3] (setting [7]) is “Pass (growth rating score caused by fungi of 2 or less at days 21-28 of the testing period)”; in assay [3] (setting [8]), “Fail (growth rating score caused by fungi of more than 2 at days 21-28 of the testing period)”; in assay [3] (setting [9]) it was “Fail (growth rating score caused by fungi of more than 2 at days 21-28 of the testing period)”; in assay [3] (setting [10]), “Fail (growth rating score caused by fungi of more than 2 at days 21-28 of the testing period)”.
For `CCCCC(CC)COCC(O)CO` (stereo not shown) [2-ethyl-hexyl glycerin (EHG), 2-ethyl-hexyl glycerin], the “Calculated EDTA equivalent” value was roughly 0 µM in assay [4] (listed as Ethylhexylglycerin) and ~ 0 μM in assay [4] (listed as ethylhexylglycerin). In addition, the “Bacteria growth rating Result” value in assay [1] (setting [7]) and in assay [1] (setting [11]) was “Fail (growth rating score caused by bacteria of 2 or more at days 21-28 of the testing period)” throughout. In addition, the “Overall Result” value in assay [2] (setting [7]) and in assay [2] (setting [12]) was “Fail” throughout. The “Fungi growth rating Result” value in assay [3] (setting [7]) and in assay [3] (setting [12]) was “Fail (growth rating score caused by fungi of more than 2 at days 21-28 of the testing period)” each time.
Regarding `CCCCC(O)CO` (stereo not shown) [1,2 hexanediol], the “Bacteria growth rating Result” value in assay [1] (setting [11]) is listed as “Pass (growth rating score caused by bacteria of 1 or less at days 21-28 of the testing period)”. The “Overall Result” value in assay [2] (setting [12]) is “Fail”. For the same compound, the “Fungi growth rating Result” value in assay [3] (setting [12]) is “Fail (growth rating score caused by fungi of more than 2 at days 21-28 of the testing period)”.
Take `CCCCCCCC(=O)NO` [Caprylhydroxamic acid (CHA), Caprylhydroxamic acid]: the “Overall Result” value in assay [5] (liquid laundry detergent, pH 7.5, Example 1G) is reported as “Fail”; in assay [5] (manual dishwashing formulation, pH 5.5, Example 1F), “Fail”; in assay [2] (setting [14]), “Fail”; in assay [2] (setting [13]), “Fail”. Further, the “Bacteria growth rating Result” value in assay [6] (liquid laundry detergent, pH 7.5, simplified bacteria pool, Example 1G) is on record as “Fail (growth rating score caused by bacteria of 2 or more at days 21-28 of the testing period)”; in assay [6] (manual dishwashing formulation, pH 5.5, simplified bacteria pool, Example 1F) it was “Fail (growth rating score caused by bacteria of 2 or more at days 21-28 of the testing period)”; in assay [1] (liquid laundry detergent, pH 7.5, full bacteria pool, Example 1H, dosed 0.02 wt %), “Fail (growth rating score caused by bacteria of 2 or more at days 21-28 of the testing period)”; in assay [1] (setting [13]) it was “Fail (growth rating score caused by bacteria of 2 or more at days 21-28 of the testing period)”. For the same compound, the “Fungi growth rating Result” value is reported as “Fail (growth rating score caused by fungi of more than 2 at days 21-28 of the testing period)” in assay [3] (liquid laundry detergent, pH 7.5, Example 1G, dosed 0.02 wt %); “Fail (growth rating score caused by fungi of more than 2 at days 21-28 of the testing period)” in assay [3] (setting [14]); “Fail (growth rating score caused by fungi of more than 2 at days 21-28 of the testing period)” in assay [3] (setting [13]); “Fail (growth rating score caused by fungi of more than 2 at days 21-28 of the testing period)” in assay [3] (manual dishwashing formulation, pH 5.5, Example 1F, dosed 0.02 wt %).

Values taken from patent US20260191192A1, “ANTIMICROBIAL COMPOSITIONS COMPRISING PELARGONIC ACID” (LANXESS Corporation, priority 2023, published 2026).
